# Reference: US11136296B2, “Substituted N-arylethyl-2-arylquinoline-4-carboxamides and use thereof” (Bayer Aktiengesellschaft, priority 2017, dated 2021)
# Target: FP receptor (Homo sapiens (Human), UniProt P43088)
# Assay: In vitro test of inhibition of human FP receptor activity (PGF2α-induced calcium flux in FP-expressing CHEM1 cells)
# Assay type: cell-based
# Conditions: PGF2α-induced (2 nM) calcium flux in FP-expressing CHEM1 cells; some as mean values from multiple determinations
# Text: Table 1 below lists the IC50 values from this assay for individual working examples of the invention (some as mean values from multiple independent individual determinations): […]
# Sequence of FP receptor (P43088 whole entry): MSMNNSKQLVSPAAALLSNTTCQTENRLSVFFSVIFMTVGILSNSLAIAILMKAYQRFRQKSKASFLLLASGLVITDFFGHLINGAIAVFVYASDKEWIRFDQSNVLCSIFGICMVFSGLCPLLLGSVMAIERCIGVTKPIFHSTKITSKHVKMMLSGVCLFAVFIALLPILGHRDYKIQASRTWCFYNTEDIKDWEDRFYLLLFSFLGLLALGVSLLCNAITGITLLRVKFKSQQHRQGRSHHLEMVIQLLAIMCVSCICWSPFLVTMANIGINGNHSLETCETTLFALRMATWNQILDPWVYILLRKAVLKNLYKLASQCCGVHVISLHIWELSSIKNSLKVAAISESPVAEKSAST
smiles,measurement,value
"Cc1c(-c2ccccc2)nc2ccc(Br)cc2c1C(=O)NCC(C)(CC(=O)O)c1ccccc1Cl (racemic) [Example 114, (+/−)-4-{[(6-Bromo-3-methyl-2-phenylquinolin-4-yl)carbonyl]amino}-3-(2-chlorophenyl)-3-methylbutanoic Acid]",IC50,18 nM
"Cc1c(-c2ccccc2)nc2ccc(Br)cc2c1C(=O)NCC(C)(CC(=O)O)c1ccccn1 (racemic) [Example 117, (+/−)-4-{[(6-Bromo-3-methyl-2-phenylquinolin-4-yl)carbonyl]amino}-3-methyl-3-(pyridin-2-yl)butanoic Acid]",IC50,240 nM
"COc1ccccc1C(C)(CNC(=O)c1c(C)c(-c2ccccc2)nc2ccc(Br)cc12)CC(=O)O (racemic) [Example 120, (+/−)-4-{[(6-Bromo-3-methyl-2-phenylquinolin-4-yl)carbonyl]amino}-3-(2-methoxyphenyl)-3-methylbutanoic Acid]",IC50,30 nM
"COc1ccc(F)cc1C(CNC(=O)c1c(C)c(-c2ccccc2)nc2ccc(Br)cc12)CC(=O)O (racemic) [Example 123, (+/−)-4-{[(6-Bromo-3-methyl-2-phenylquinolin-4-yl)carbonyl]amino}-3-(5-fluoro-2-methoxyphenyl)butanoic Acid]",IC50,11 nM
"COc1cccc(F)c1C(CNC(=O)c1c(C)c(-c2ccccc2)nc2ccc(Br)cc12)CC(=O)O (racemic) [Example 126, (+/−)-4-{[(6-Bromo-3-methyl-2-phenylquinolin-4-yl)carbonyl]amino}-3-(2-fluoro-6-methoxyphenyl)butanoic Acid]",IC50,39 nM
"CCOc1ccccc1C(CNC(=O)c1c(C)c(-c2ccccc2)nc2ccc(Br)cc12)CC(=O)O (racemic) [Example 129, (+/−)-4-{[(6-Bromo-3-methyl-2-phenylquinolin-4-yl)carbonyl]amino}-3-(2-ethoxyphenyl)butanoic Acid]",IC50,130 nM
"COc1ccc(F)cc1C(C)(CNC(=O)c1c(C)c(-c2ccccc2)nc2ccc(Br)cc12)CC(=O)O (racemic) [Example 132, (+/−)-4-{[(6-Bromo-3-methyl-2-phenylquinolin-4-yl)carbonyl]amino}-3-(5-fluoro-2-methoxyphenyl)-3-methylbutanoic Acid]",IC50,32 nM
"COc1c(F)cc(F)cc1C(C)(CNC(=O)c1c(C)c(-c2ccccc2)nc2ccc(Br)cc12)CC(=O)O (racemic) [Example 135, (+/−)-4-{[(6-Bromo-3-methyl-2-phenylquinolin-4-yl)carbonyl]amino}-3-(3,5-difluoro-2-methoxyphenyl)-3-methylbutanoic Acid]",IC50,13 nM
"COc1cc(F)ccc1C(C)(CNC(=O)c1c(C)c(-c2ccccc2)nc2ccc(Br)cc12)CC(=O)O (racemic) [Example 138, (+/−)-4-{[(6-Bromo-3-methyl-2-phenylquinolin-4-yl)carbonyl]amino}-3-(4-fluoro-2-methoxyphenyl)-3-methylbutanoic Acid]",IC50,42 nM
"COc1ccccc1C(CNC(=O)c1c(C)c(-c2ccccc2)nc2ccc(Br)cc12)C(F)(F)C(=O)O (racemic) [Example 141, (+/−)-4-{[(6-Bromo-3-methyl-2-phenylquinolin-4-yl)carbonyl]amino}-2,2-difluoro-3-(2-methoxyphenyl)butanoic Acid]",IC50,24 nM
"COc1cccc(F)c1C(C)(CNC(=O)c1c(C)c(-c2ccccc2)nc2ccc(Br)cc12)CC(=O)O (racemic) [Example 142, (+/−)-4-{[(6-Bromo-3-methyl-2-phenylquinolin-4-yl)carbonyl]amino}-3-(2-fluoro-6-methoxyphenyl)-3-methylbutanoic Acid]",IC50,15 nM
"Cc1c(-c2ccccc2)nc2ccc(Br)cc2c1C(=O)NC(C)C(CC(=O)O)c1ccccc1Cl (racemic) [Example 145, (+/−)-4-{[(6-Bromo-3-methyl-2-phenylquinolin-4-yl)carbonyl]amino}-3-(2-chlorophenyl)pentanoic Acid]",IC50,49 nM
"Cc1c(-c2ccccc2)nc2ccc(Br)cc2c1C(=O)NC(C)C(CC(=O)O)c1ccccc1Cl (racemic) [Example 148, (+/−)-4-{[(6-Bromo-3-methyl-2-phenylquinolin-4-yl)carbonyl]amino}-3-(2-chlorophenyl)pentanoic Acid]",IC50,42 nM
"Cc1c(-c2ccccc2)nc2ccc(Br)cc2c1C(=O)NCC(CCC(=O)O)c1ccccc1Cl (racemic) [Example 151, (+/−)-5-{[(6-Bromo-3-methyl-2-phenylquinolin-4-yl)carbonyl]amino}-4-(2-chlorophenyl)pentanoic Acid]",IC50,7.8 nM
"Cc1c(-c2ccccc2)nc2ccc(Br)cc2c1C(=O)NCC(C)(CCC(=O)O)c1ccccc1Cl (racemic) [Example 154, (+/−)-5-{[(6-Bromo-3-methyl-2-phenylquinolin-4-yl)carbonyl]amino}-4-(2-chlorophenyl)-4-methylpentanoic Acid]",IC50,15 nM
"Cc1c(-c2ccccc2)nc2ccc(Br)cc2c1C(=O)NCC(CCC(=O)O)c1c(F)cccc1Cl (racemic) [Example 157, (+/−)-5-{[(6-Bromo-3-methyl-2-phenylquinolin-4-yl)carbonyl]amino}-4-(2-chloro-6-fluorophenyl)pentanoic Acid]",IC50,3.7 nM
"Cc1ccccc1C(CCC(=O)O)CNC(=O)c1c(C)c(-c2ccccc2)nc2ccc(Br)cc12 (racemic) [Example 160, (+/−)-5-{[(6-Bromo-3-methyl-2-phenylquinolin-4-yl)carbonyl]amino}-4-(2-methylphenyl)pentanoic Acid]",IC50,13 nM
"Cc1c(-c2ccccc2)nc2ccc(Br)cc2c1C(=O)NCC(CCC(=O)O)c1cc(F)ccc1Cl (racemic) [Example 163, (+/−)-5-{[(6-Bromo-3-methyl-2-phenylquinolin-4-yl)carbonyl]amino}-4-(2-chloro-5-fluorophenyl)pentanoic Acid]",IC50,8.7 nM
"COc1ccccc1C(CCC(=O)O)CNC(=O)c1c(C)c(-c2ccccc2)nc2ccc(Br)cc12 (racemic) [Example 166, (+/−)-5-{[(6-Bromo-3-methyl-2-phenylquinolin-4-yl)carbonyl]amino}-4-(2-methoxyphenyl)pentanoic Acid]",IC50,6.1 nM
"Cc1c(-c2ccccc2)nc2ccc(Br)cc2c1C(=O)NCC(C)(CCC(=O)O)c1cc(F)ccc1Cl (racemic) [Example 169, (+/−)-5-{[(6-Bromo-3-methyl-2-phenylquinolin-4-yl)carbonyl]amino}-4-(2-chloro-5-fluorophenyl)-4-methylpentanoic Acid]",IC50,26 nM
"Cc1c(-c2ccccc2)nc2ccc(Br)cc2c1C(=O)NCC(CCC(=O)O)c1ccccc1F (racemic) [Example 175, (+/−)-5-{[(6-Bromo-3-methyl-2-phenylquinolin-4-yl)carbonyl]amino}-4-(2-fluorophenyl)pentanoic Acid]",IC50,15 nM
"Cc1c(-c2ccccc2)nc2ccc(Br)cc2c1C(=O)NCC(CCC(=O)O)c1ccccc1OC(F)F (racemic) [Example 178, (+/−)-5-{[(6-Bromo-3-methyl-2-phenylquinolin-4-yl)carbonyl]amino}-4-[2-(difluoromethoxy)phenyl]pentanoic Acid]",IC50,6.5 nM
"Cc1c(-c2ccccc2)nc2ccc(Br)cc2c1C(=O)NCC(CCC(=O)O)c1c(F)cccc1F (racemic) [Example 181, (+/−)-5-{[(6-Bromo-3-methyl-2-phenylquinolin-4-yl)carbonyl]amino}-4-(2,6-difluorophenyl)pentanoic Acid]",IC50,9.2 nM
"Cc1c(-c2ccccc2)nc2ccc(Br)cc2c1C(=O)NCC(CCC(=O)O)c1cccc(F)c1Cl (racemic) [Example 184, (+/−)-5-{[(6-Bromo-3-methyl-2-phenylquinolin-4-yl)carbonyl]amino}-4-(2-chloro-3-fluorophenyl)pentanoic Acid]",IC50,7.7 nM
"Cc1c(-c2ccccc2)nc2ccc(Br)cc2c1C(=O)NCC(c1ccccc1Cl)N(C)CC(=O)O (racemic) [Example 187, (+/−)-N-[2-{[(6-Bromo-3-methyl-2-phenylquinolin-4-yl)carbonyl]amino}-1-(2-chlorophenyl)ethyl]-N-methylglycine]",IC50,36 nM
"Cc1c(-c2ccccc2)nc2ccc(Br)cc2c1C(=O)NCC(NCC(=O)O)c1ccccc1Cl (racemic) [Example 190, (+/−)-N-[2-{[(6-Bromo-3-methyl-2-phenylquinolin-4-yl)carbonyl]amino}-1-(2-chlorophenyl)ethyl]glycine]",IC50,67 nM
"Cc1c(-c2ccccc2)nc2ccc(Br)cc2c1C(=O)NCC(OCC(=O)O)c1ccccc1Cl (racemic) [Example 191, (+/−)-[2-{[(6-Bromo-3-methyl-2-phenylquinolin-4-yl)carbonyl]amino}-1-(2-chlorophenyl)ethoxy]acetic Acid]",IC50,100 nM
"Cc1c(-c2ccccc2)nc2ccc(Br)cc2c1C(=O)NCC(SCC(=O)O)c1ccccc1Cl (racemic) [Example 194, (+/−)-{[2-{[(6-Bromo-3-methyl-2-phenylquinolin-4-yl)carbonyl]amino}-1-(2-chlorophenyl)ethyl]sulfanyl}acetic Acid]",IC50,7.9 nM
"Cc1c(-c2ccccc2)nc2ccc(Br)cc2c1C(=O)NCC(c1ccccc1Cl)S(=O)(=O)CC(=O)O (racemic) [Example 197, (+/−)-{[2-{[(6-Bromo-3-methyl-2-phenylquinolin-4-yl)carbonyl]amino}-1-(2-chlorophenyl)ethyl]sulfonyl}acetic Acid]",IC50,21 nM
"Cc1c(-c2ccccc2)nc2ccc(Br)cc2c1C(=O)NCC(CCC(=O)O)c1c(Cl)ccc(F)c1F (racemic) [Example 200, (+/−)-5-{[(6-Bromo-3-methyl-2-phenylquinolin-4-yl)carbonyl]amino}-4-(6-chloro-2,3-difluorophenyl)pentanoic Acid]",IC50,3.6 nM
"Cc1c(-c2ccccc2)nc2ccc(Br)cc2c1C(=O)NCC(CCC(=O)O)c1ccccc1C(F)(F)F (racemic) [Example 203, (+/−)-5-{[(6-Bromo-3-methyl-2-phenylquinolin-4-yl)carbonyl]amino}-4-[2-(trifluoromethyl)phenyl]pentanoic Acid]",IC50,7.6 nM
"Cc1ccc(F)cc1C(CCC(=O)O)CNC(=O)c1c(C)c(-c2ccccc2)nc2ccc(Br)cc12 (racemic) [Example 206, (+/−)-5-{[(6-Bromo-3-methyl-2-phenylquinolin-4-yl)carbonyl]amino}-4-(5-fluoro-2-methylphenyl)pentanoic Acid]",IC50,13 nM
